Eight cell lines from the supplement of paper PMC10307832 can be followed below.

Experiment in all cases: relative viability (nuclei count vs DMSO), 5 days (fraction); higher = more cells survive
Compound in the assay “Kobe2602 + Olaparib”: C1=CC(=CC=C1NC(=S)NNC2=C(C=C(C=C2[N+](=O)[O-])C(F)(F)F)[N+](=O)[O-])F [Kobe2602] + O=C(c1cc(Cc2n[nH]c(=O)c3ccccc23)ccc1F)N1CCN(C(=O)C2CC2)CC1 [Olaparib] (partner 8 µM)
The essentials:
(§1)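 Dosing by pin tool came one day after lung cancer cell lines were seeded in 1536-well plates, using either one drug or a fixed anchor-drug dose plus five library-drug doses (not always all listed) in √10 steps. After 5 days, nuclei were counted on 4× images. Relative viability is treated-well nuclei count divided by vehicle-well nuclei count, and values are medians of duplicate plates.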

Compound in the assay “Kobe2602 + Alpelisib”: C1=CC(=CC=C1NC(=S)NNC2=C(C=C(C=C2[N+](=O)[O-])C(F)(F)F)[N+](=O)[O-])F [Kobe2602] + Cc1nc(NC(=O)N2CCC[C@H]2C(N)=O)sc1-c1ccnc(C(C)(C)C(F)(F)F)c1 [Alpelisib] (partner 2 µM)
A digest of the protocol:
as §1

Compound in the assay “Kobe2602 + Linsitinib”: C1=CC(=CC=C1NC(=S)NNC2=C(C=C(C=C2[N+](=O)[O-])C(F)(F)F)[N+](=O)[O-])F [Kobe2602] + C[C@]1(O)C[C@@H](c2nc(-c3ccc4ccc(-c5ccccc5)nc4c3)c3c(N)nccn32)C1 [Linsitinib] (partner 1 µM)
A digest of the protocol:
as §1

Compound in the assay “Kobe2602 + Crizotinib”: C1=CC(=CC=C1NC(=S)NNC2=C(C=C(C=C2[N+](=O)[O-])C(F)(F)F)[N+](=O)[O-])F [Kobe2602] + C[C@@H](Oc1cc(-c2cnn(C3CCNCC3)c2)cnc1N)c1c(Cl)ccc(F)c1Cl [Crizotinib] (partner 1 µM)
A digest of the protocol: as §1

For the cell line NCI-H1395, the relative viability with Kobe2602 + Olaparib (first compound 0.2 µM) is 0.447; with Kobe2602 + Olaparib (first compound 0.6325 µM) it was 0.487; with Kobe2602 + Olaparib (first compound 2 µM), 0.463; with Kobe2602 + Olaparib (first compound 6.325 µM) it was 0.535; with Kobe2602 + Olaparib (first compound 20 µM), 0.486; with Kobe2602 + Alpelisib (first compound 0.2 µM), 1.05. The relative viability in the assay with Kobe2602 + Alpelisib (first compound 0.6325 µM) turned out to be 1.29; in the assay with Kobe2602 + Alpelisib (first compound 2 µM), 1.09; in the assay with Kobe2602 + Alpelisib (first compound 6.325 µM), 1.14; with Kobe2602 + Alpelisib (first compound 20 µM), 1.03; with Kobe2602 + Linsitinib (first compound 0.2 µM), 0.992; with Kobe2602 + Linsitinib (first compound 0.6325 µM) it was 1. Moreover, the values for the relative viability with Kobe2602 + Linsitinib (first compound 2 µM), with Kobe2602 + Linsitinib (first compound 6.325 µM) and with Kobe2602 + Linsitinib (first compound 20 µM) were 1.04, 1.05 and 1.12, respectively.

Consider NCI-H1563, for which the relative viability with Kobe2602 + Crizotinib (first compound 0.2 µM) came to 0.844; with Kobe2602 + Crizotinib (first compound 0.6325 µM), 0.885; with Kobe2602 + Crizotinib (first compound 2 µM), 0.749; with Kobe2602 + Crizotinib (first compound 6.325 µM), 0.939; with Kobe2602 + Crizotinib (first compound 20 µM), 0.85; with Kobe2602 + Alpelisib (first compound 0.2 µM), 0.939. Also, the relative viability with Kobe2602 + Alpelisib (first compound 0.6325 µM) amounted to 0.917; with Kobe2602 + Alpelisib (first compound 2 µM), 0.871; with Kobe2602 + Alpelisib (first compound 6.325 µM) it was 0.839; with Kobe2602 + Alpelisib (first compound 20 µM), 1.08; in the assay with Kobe2602 + Linsitinib (first compound 0.2 µM) it was 1.1; in the assay with Kobe2602 + Linsitinib (first compound 0.6325 µM), 1.39. In addition, the values for the relative viability with Kobe2602 + Linsitinib (first compound 2 µM), with Kobe2602 + Linsitinib (first compound 6.325 µM) and with Kobe2602 + Linsitinib (first compound 20 µM) were 1.08, 1.14 and 1.34, respectively.

For the cell line NCI-H1648, the relative viability in the assay with Kobe2602 + Olaparib (first compound 0.2 µM) is 0.62; with Kobe2602 + Olaparib (first compound 0.6325 µM), 0.929; in the assay with Kobe2602 + Olaparib (first compound 2 µM), 0.493; with Kobe2602 + Olaparib (first compound 6.325 µM) it was 0.772; in the assay with Kobe2602 + Olaparib (first compound 20 µM), 0.872.

As to NCI-H1650, the relative viability with Kobe2602 + Crizotinib (first compound 0.2 µM) is 0.913; with Kobe2602 + Crizotinib (first compound 0.6325 µM) it was 1.01; in the assay with Kobe2602 + Crizotinib (first compound 2 µM), 0.92; with Kobe2602 + Crizotinib (first compound 6.325 µM) it was 1.07; with Kobe2602 + Crizotinib (first compound 20 µM) it was 1.05; with Kobe2602 + Olaparib (first compound 0.2 µM), 0.844. Besides, the relative viability with Kobe2602 + Olaparib (first compound 0.6325 µM) came out at 0.891; with Kobe2602 + Olaparib (first compound 2 µM), 0.819; with Kobe2602 + Olaparib (first compound 6.325 µM), 0.868; with Kobe2602 + Olaparib (first compound 20 µM), 0.8.

Consider NCI-H1793, for which the relative viability with Kobe2602 + Olaparib (first compound 0.2 µM) came to 0.91; with Kobe2602 + Olaparib (first compound 0.6325 µM), 0.852; with Kobe2602 + Olaparib (first compound 2 µM) it was 0.744; with Kobe2602 + Olaparib (first compound 6.325 µM) it was 0.883; with Kobe2602 + Olaparib (first compound 20 µM), 0.977; with Kobe2602 + Alpelisib (first compound 0.2 µM), 0.629. In addition, the relative viability is 0.615 with Kobe2602 + Alpelisib (first compound 0.6325 µM); 0.589 in the assay with Kobe2602 + Alpelisib (first compound 2 µM); 0.684 in the assay with Kobe2602 + Alpelisib (first compound 6.325 µM); 0.847 in the assay with Kobe2602 + Alpelisib (first compound 20 µM); 0.856 with Kobe2602 + Linsitinib (first compound 0.2 µM); 0.883 with Kobe2602 + Linsitinib (first compound 0.6325 µM). For the same cell line, the figures for the relative viability in the assay with Kobe2602 + Linsitinib (first compound 2 µM), with Kobe2602 + Linsitinib (first compound 6.325 µM) and with Kobe2602 + Linsitinib (first compound 20 µM) were 0.806, 0.831 and 0.958, respectively.

Regarding NCI-H2170, the relative viability is 1.22 with Kobe2602 + Crizotinib (first compound 0.2 µM); 1.21 with Kobe2602 + Crizotinib (first compound 0.6325 µM); 1.14 with Kobe2602 + Crizotinib (first compound 2 µM); 1.31 with Kobe2602 + Crizotinib (first compound 6.325 µM); 1.13 with Kobe2602 + Crizotinib (first compound 20 µM); 0.561 with Kobe2602 + Olaparib (first compound 0.2 µM). Moreover, the relative viability is 0.574 with Kobe2602 + Olaparib (first compound 0.6325 µM); 0.53 in the assay with Kobe2602 + Olaparib (first compound 2 µM); 0.597 with Kobe2602 + Olaparib (first compound 6.325 µM); 0.625 with Kobe2602 + Olaparib (first compound 20 µM); 0.807 with Kobe2602 + Alpelisib (first compound 0.2 µM); 0.86 with Kobe2602 + Alpelisib (first compound 0.6325 µM). Moreover, the relative viability is 0.794 with Kobe2602 + Alpelisib (first compound 2 µM), 0.726 with Kobe2602 + Alpelisib (first compound 6.325 µM) and 0.772 with Kobe2602 + Alpelisib (first compound 20 µM).

With NCI-H2342, the relative viability with Kobe2602 + Olaparib (first compound 0.2 µM) was determined as 0.415; with Kobe2602 + Olaparib (first compound 0.6325 µM) it was 0.406; with Kobe2602 + Olaparib (first compound 2 µM), 0.435; with Kobe2602 + Olaparib (first compound 6.325 µM) it was 0.493; in the assay with Kobe2602 + Olaparib (first compound 20 µM) it was 0.434.

For the cell line SW 900, the relative viability with Kobe2602 + Olaparib (first compound 0.2 µM) was determined as 0.914; with Kobe2602 + Olaparib (first compound 0.6325 µM), 0.981; with Kobe2602 + Olaparib (first compound 2 µM), 0.679; with Kobe2602 + Olaparib (first compound 6.325 µM), 0.969; with Kobe2602 + Olaparib (first compound 20 µM), 0.976.
